Reference: patent US7259140B2, “Heparin-binding peptides and uses thereof” (Thomas Jefferson University, priority 2003, dated 2007)
Ends that are not written are not given here.

Assays:
Format in all cases: biochemical, human
[1] = test system: Lovenox ® Activity in Blood from Patients Treated with Lovenox ®; assay: Neutralizing Lovenox activity in blood from patients treated with Lovenox (anti-Factor Xa assay); conditions: Peptide 12 μg/ml
Description: Blood was obtained from volunteers who were being treated with Lovenox® for their medical conditions after obtaining signatures on informed consent forms as approved by the Institutional Review Board. The assays to test neutralization of Lovendx® were performed as described for Table 2. A dose response from 1-60 μg/ml was evaluated as in Table 2.
The dose response pattern for the effective peptides was similar to the dose response in control plasma to which Lovenox® had been added. Each data point represents the mean and standard deviation of triplicate analyses on the same sample of blood from each patient.

[2] = test system: anti-Factor Xa Activity of Unfractionated Heparin; assay: Anti-Factor Xa assay: neutralization of unfractionated heparin in citrate or plasma in vitro; conditions: UFH 0.7 U/ml
Description: The ability of peptides such as (ARKKAAKA)3VLVLVLVL (SEQ ID NO:5) to neutralize the anti-Factor Xa activity of UFH and LMWH in vitro was tested using the Stachrom Heparin kit (Diagnostica Stago), a standard hematology laboratory assay used to measure the anti-Factor Xa activity of heparin. The assay was performed using the low molecular weight heparin enoxaparin sodium (Lovenox®, Aventis Pharmaceuticals, Inc.), unfractionated heparin (UFH), or the non-heparin glycosaminoglycan danaparoid sodium (Orgaran®, Organon Inc., West Orange, N.J.) in 0.32% citrate or in plasma anticoagulated with 0.32% citrate. Enoxaparin is commonly used clinically as a low molecular weight heparin (LMWH). Danaparoid is commonly used clinically as a non-heparin glycosaminoglycan anticoagulant. Currently, the only FDA approved drug to target UFH is protamine, which is not effective in vivo against LMWH or a non-heparin glycosaminoglycan such as danaparoid. Buffer and ATIII are added to form the heparin/ATIII complex, peptide is added, then Factor Xa, reporter dye substrate for Factor Xa activity, and stop solution, and the dye concentration is read at 405 nm. The absorbance of the dye increases with increasing Factor Xa activity, and thus is inversely proportional to the heparin (anti-Factor Xa activity) concentration. Peptides were tested in plasma obtained from three volunteers (A, B, and C). Platelet function inhibitors PG12 and theophylline were added to the blood immediately upon collection. […]

[3] = test system: anti-Factor Xa Activity of the Low Molecular Weight Heparin Lovenox ®; assay: Anti-Factor Xa assay (Stachrom Heparin kit): neutralization of Lovenox in citrate or plasma in vitro; conditions: for Lovenox ® Neutralized: Lovenox 0.7 U/ml
Description: The ability of peptides such as (ARKKAAKA)3VLVLVLVL (SEQ ID NO:5) to neutralize the anti-Factor Xa activity of UFH and LMWH in vitro was tested using the Stachrom Heparin kit (Diagnostica Stago), a standard hematology laboratory assay used to measure the anti-Factor Xa activity of heparin. The assay was performed using the low molecular weight heparin enoxaparin sodium (Lovenox®, Aventis Pharmaceuticals, Inc.), unfractionated heparin (UFH), or the non-heparin glycosaminoglycan danaparoid sodium (Orgaran®, Organon Inc., West Orange, N.J.) in 0.32% citrate or in plasma anticoagulated with 0.32% citrate. Enoxaparin is commonly used clinically as a low molecular weight heparin (LMWH). Danaparoid is commonly used clinically as a non-heparin glycosaminoglycan anticoagulant. Currently, the only FDA approved drug to target UFH is protamine, which is not effective in vivo against LMWH or a non-heparin glycosaminoglycan such as danaparoid. Buffer and ATIII are added to form the heparin/ATIII complex, peptide is added, then Factor Xa, reporter dye substrate for Factor Xa activity, and stop solution, and the dye concentration is read at 405 nm. The absorbance of the dye increases with increasing Factor Xa activity, and thus is inversely proportional to the heparin (anti-Factor Xa activity) concentration. Peptides were tested in plasma obtained from three volunteers (A, B, and C). Platelet function inhibitors PG12 and theophylline were added to the blood immediately upon collection.
Results. […] (ARKKAAKA)3VLVLVLVL (SEQ ID NO:5) and VLVL(ARKKAAKA)3ARKKCAKA (SEQ ID NO:38) were able to neutralize about 0.4 U/ml anti-Factor Xa activity of LMWH at a concentration of 12 μg/ml, which would be an effective dose for patients. (AKKARA)6 (SEQ ID […]), (ARKKAAKA)4 (SEQ ID NO:31) and (ARKKAAKA)3ARKKCAKA […] 0.3-0.35 U/ml. In contrast, 12 μg protamine only neutralized about 0.25 U/ml of LMWH under these conditions.

## ARKKAAKAARKKAAKAARKKAAKAARKKAAKA [(ARKKAAKA)4]
[1]; blood of Lovenox-treated Patient Number 1
  Lovenox ® Neutralized: 0.116 U/ml
[1]; blood of Lovenox-treated Patient Number 2
  Lovenox ® Neutralized: 0.073 U/ml
[1]; blood of Lovenox-treated Patient Number 3
  Lovenox ® Neutralized: 0.105 U/ml
[1]; blood of Lovenox-treated Patient Number 4
  Lovenox ® Neutralized: 0.225 U/ml
[1]; blood of Lovenox-treated Patient Number 5
  Lovenox ® Neutralized: 0.194 U/ml
[1]; blood of Lovenox-treated Patient Number 8
  Lovenox ® Neutralized: 0.289 U/ml
[1]; blood of Lovenox-treated Patient Number 9
  Lovenox ® Neutralized: 0.283 U/ml
[1]; blood of Lovenox-treated Patient Number 10
  Lovenox ® Neutralized: 0.194 U/ml
[1]; blood of Lovenox-treated Patient Number 11
  Lovenox ® Neutralized: 0.135 U/ml
[2]; 1 μg/ml Peptide, A Plasma
  Unfractionated Heparin Neutralized: 0.069 ± 0.023 U/ml
[2]; 1 μg/ml Peptide, B Plasma
  Unfractionated Heparin Neutralized: 0.124 ± 0.047 U/ml
[2]; 1 μg/ml Peptide, C Plasma
  Unfractionated Heparin Neutralized: 0.076 ± 0.014 U/ml
[2]; 1 μg/ml Peptide, Citrate
  Unfractionated Heparin Neutralized: 0.056 ± 0.019 U/ml
[2]; 6 μg/ml Peptide, A Plasma
  Unfractionated Heparin Neutralized: 0.334 ± 0.016 U/ml
[2]; 6 μg/ml Peptide, B Plasma
  Unfractionated Heparin Neutralized: 0.361 ± 0.038 U/ml
[2]; 6 μg/ml Peptide, C Plasma
  Unfractionated Heparin Neutralized: 0.397 ± 0.004 U/ml
[2]; 6 μg/ml Peptide, Citrate
  Unfractionated Heparin Neutralized: 0.423 ± 0.014 U/ml
[2]; 12 μg/ml Peptide, A Plasma
  Unfractionated Heparin Neutralized: 0.412 ± 0.010 U/ml
[2]; 12 μg/ml Peptide, B Plasma
  Unfractionated Heparin Neutralized: 0.395 ± 0.012 U/ml
[2]; 12 μg/ml Peptide, C Plasma
  Unfractionated Heparin Neutralized: 0.396 ± 0.018 U/ml
[2]; 12 μg/ml Peptide, Citrate
  Unfractionated Heparin Neutralized: 0.370 ± 0.020 U/ml
[2]; 60 μg/ml Peptide, A Plasma
  Unfractionated Heparin Neutralized: 0.389 ± 0.018 U/ml
[2]; 60 μg/ml Peptide, B Plasma
  Unfractionated Heparin Neutralized: 0.442 ± 0.056 U/ml
[2]; 60 μg/ml Peptide, C Plasma
  Unfractionated Heparin Neutralized: 0.401 ± 0.012 U/ml
[2]; 60 μg/ml Peptide, Citrate
  Unfractionated Heparin Neutralized: 0.378 ± 0.023 U/ml
[2]; 120 μg/ml Peptide, A Plasma
  Unfractionated Heparin Neutralized: 0.364 ± 0.032 U/ml
[2]; 120 μg/ml Peptide, B Plasma
  Unfractionated Heparin Neutralized: 0.392 ± 0.075 U/ml
[2]; 120 μg/ml Peptide, C Plasma
  Unfractionated Heparin Neutralized: 0.374 ± 0.020 U/ml
[2]; 120 μg/ml Peptide, Citrate
  Unfractionated Heparin Neutralized: 0.361 ± 0.028 U/ml
[3]; 1 μg/ml Peptide, A Plasma
  Lovenox ® Neutralized: 0.020 ± 0.016 U/ml
[3]; 1 μg/ml Peptide, B Plasma
  Lovenox ® Neutralized: 0.031 ± 0.015 U/ml
[3]; 1 μg/ml Peptide, C Plasma
  Lovenox ® Neutralized: 0.059 ± 0.029 U/ml
[3]; 1 μg/ml Peptide, Citrate
  Lovenox ® Neutralized: 0.141 ± 0.051 U/ml
[3]; 6 μg/ml Peptide, A Plasma
  Lovenox ® Neutralized: 0.184 ± 0.038 U/ml
[3]; 6 μg/ml Peptide, B Plasma
  Lovenox ® Neutralized: 0.178 ± 0.022 U/ml
[3]; 6 μg/ml Peptide, C Plasma
  Lovenox ® Neutralized: 0.252 ± 0.024 U/ml
[3]; 6 μg/ml Peptide, Citrate
  Lovenox ® Neutralized: 0.376 ± 0.019 U/ml
[3]; 12 μg/ml Peptide, A Plasma
  Lovenox ® Neutralized: 0.287 ± 0.058 U/ml
[3]; 12 μg/ml Peptide, B Plasma
  Lovenox ® Neutralized: 0.328 ± 0.041 U/ml
[3]; 12 μg/ml Peptide, C Plasma
  Lovenox ® Neutralized: 0.325 ± 0.030 U/ml
[3]; 12 μg/ml Peptide, Citrate
  Lovenox ® Neutralized: 0.473 ± 0.039 U/ml
[3]; 60 μg/ml Peptide, A Plasma
  Lovenox ® Neutralized: 0.343 ± 0.090 U/ml
[3]; 60 μg/ml Peptide, B Plasma
  Lovenox ® Neutralized: 0.488 ± 0.012 U/ml
[3]; 60 μg/ml Peptide, C Plasma
  Lovenox ® Neutralized: 0.495 ± 0.032 U/ml
[3]; 60 μg/ml Peptide, Citrate
  Lovenox ® Neutralized: 0.515 ± 0.016 U/ml
[3]; 120 μg/ml Peptide, A Plasma
  Lovenox ® Neutralized: 0.601 ± 0.052 U/ml
[3]; 120 μg/ml Peptide, B Plasma
  Lovenox ® Neutralized: 0.541 ± 0.065 U/ml
[3]; 120 μg/ml Peptide, C Plasma
  Lovenox ® Neutralized: 0.570 ± 0.029 U/ml
[3]; 120 μg/ml Peptide, Citrate
  Lovenox ® Neutralized: 0.509 ± 0.079 U/ml
[3]; Table 2A
  anti-LMWH effect in citrate compared with plasma: greater anti-LMWH effect in citrate than in plasma
[3]; low concentrations, in the presence of plasma
  Lovenox/LMWH neutralization compared with protamine: more effective than protamine
